Laboratory results: patent US20240174618A1, “SUBSTITUTED (2-HETEROARYLOXYPHENYL)SULFONATES, SALTS THEREOF AND THEIR USE AS HERBICIDAL AGENTS” (Bayer Aktiengesellschaft, priority 2021, published 2024)

Assays:
Type in all cases: in vivo
[1] = system: Oryza sativa (ORYSA); experiment: F. Post-emergence effect on useful plants, ORYSA; settings: useful plant
Protocol: (§1) Seeds of monocotyledonous and dicotyledonous weeds and crop plants were placed in sandy loam in plastic or organic planting pots, covered with soil and cultivated in a greenhouse under controlled growth conditions. 2 to 3 weeks after sowing, the test plants were treated at the one-leaf stage. The compounds of the invention, formulated in the form of wettable powders (WP) or as emulsion concentrates (EC), were then sprayed onto the green parts of the plants as aqueous suspension or emulsion with addition of 0.5% additive at a water application rate of 600 l/ha (converted). After the test plants had been kept in the greenhouse under optimum growth conditions for about 3 weeks, the activity of the preparations was rated visually in comparison to untreated controls.
(§2) For example, • 100% efficacy=plants have died, • 0% action=like untreated control plants.
(§3) Tables F1a to F4 below show the effects of selected compounds of the general formula (I) according to table 1 on various useful plants at an application rate corresponding to 320 g/ha or less, which were obtained by the experimental procedure mentioned above.

[2] = system: Zea mays (ZEAMX); experiment: F. Post-emergence effect on useful plants, ZEAMX; settings: useful plant
Protocol: as §1, §2, §3

[3] = system: Avena fatua (AVEFA); experiment: C. Herbicidal pre-emergence efficacy, AVEFA; settings: 320 g/ha, scored after about 3 weeks
Text: (§4) Seeds of monocotyledonous and dicotyledonous weed plants and crop plants were placed in plastic or organic planting pots and covered with soil. The compounds of the invention, formulated in the form of wettable powders (WP) or as emulsion concentrates (EC), were then applied to the surface of the covering soil as aqueous suspension or emulsion with addition of 0.5% additive at a water application rate equivalent to 600 l/ha (converted). After the treatment, the pots were placed in a greenhouse and kept under good growth conditions for the test plants. After about 3 weeks, the efficacy of the preparations was scored visually in comparison with untreated controls as percentages. For example, • 100% efficacy=plants have died, • 0% efficacy=like untreated control plants.
Tables C1a to C14b below show the effects of selected compounds of the general formula (I) according to table 1 on various harmful plants at an application rate corresponding to 320 g/ha or less, which were obtained by the experimental procedure mentioned above.

[4] = system: Oryza sativa (ORYSA); experiment: D. Pre-emergence effect on useful plants, ORYSA; settings: useful plant
Text: as §4
(§5) Tables D1a to D5b below show the effects of selected compounds of the general formula (I) according to table 1 on various useful plants at an application rate corresponding to 320 g/ha or less, which were obtained by the experimental procedure mentioned above.

[5] = system: Matricaria inodora (MATIN); experiment: B. Herbicidal post-emergence efficacy, MATIN; settings: 1280 g/ha
Protocol: Seeds of mono- and dicotyledonous weed plants were placed in plastic pots in sandy loam soil (doubly sown with in each case one species of mono- or dicotyledonous weed plants per pot), covered with soil and cultivated in a greenhouse under controlled growth conditions. 2 to 3 weeks after sowing, the test plants were treated at the one-leaf stage. The compounds of the invention, formulated in the form of wettable powders (WP) or as emulsion concentrates (EC), were applied onto the green parts of the plants as aqueous suspension or emulsion with addition of 0.5% additive at a water application rate of 600 liters per hectare (converted). After the test plants had been kept in the greenhouse under optimum growth conditions for about 3 weeks, the activity of the preparations was rated visually in comparison to untreated controls.
For example, • 100% efficacy=plants have died, • 0% efficacy=like untreated control plants
Tables B1a to B12c below show the effects of selected inventive compounds of the general formula (I) according to table 1 on various harmful plants at an application rate corresponding to 1280 g/ha or less, which were obtained by the experimental procedure mentioned above.

[6] = system: Lolium rigidum (LOLRI); experiment: E. Herbicidal post-emergence efficacy, LOLRI; settings: application rate 320 g/ha
Protocol: as §1, §2
Tables E1a to E12b below show the effects of selected compounds of the general formula (I) according to table 1 on various harmful plants at an application rate corresponding to 320 g/ha or less, which were obtained by the experimental procedure mentioned above.

[7] = system: Glycine max (GLXMA); experiment: D. Pre-emergence effect on useful plants, GLXMA; settings: useful plant
Outline: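 Seeds sown in pots and covered with soil; WP or EC formulations sprayed on the soil surface as aqueous suspension/emulsion with 0.5% additive at 600 l/ha water. Plants grown in greenhouse; crop damage scored visually after about 3 weeks as % versus untreated controls (100% = dead, 0% = like control).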

[8] = system: Glycine max (GLXMA); experiment: F. Post-emergence effect on useful plants, GLXMA; settings: useful plant, application rate 80 g/ha
Protocol: as §1, §2, §3

[9] = system: Brassica napus (BRSNW); experiment: D. Pre-emergence effect on useful plants, BRSNW; settings: useful plant
Text: as §4, §5

Row | Post-emergence efficacy against ORYSA in % ([1]; application rate 80 g/ha) [%] | Post-emergence efficacy against ZEAMX in % ([2]; application rate 80 g/ha) [%] | Structure (SMILES) | Pre-emergence efficacy against AVEFA [3] [%] | further results
1 | 0 | 20 | O=S(=O)(CCCCl)Oc1ccccc1Oc1ncc(Cl)cn1 [Example I-2] | 100 | 
2 | 10 | 10 | CCCS(=O)(=O)Oc1ccccc1Oc1ncc(Cl)cn1 [Example I-3] |  | Pre-emergence efficacy against ORYSA in % ([4]; application rate 80 g/ha): 20%
3 | 20 |  | O=S(=O)(CCCCl)Oc1ccccc1Oc1ncc(F)cn1 [Example I-5] | 80 | Post-emergence efficacy against MATIN [5]: 90%; Post-emergence efficacy against LOLRI in % [6]: 90%
4 |  |  | CCCCS(=O)(=O)Oc1ccccc1Oc1ncc(Cl)cn1 [Example I-6] | 80 | 
5 |  |  | CC(C)CS(=O)(=O)Oc1ccccc1Oc1ncc(Cl)cn1 [Example I-7, [2-(5-Chloropyrimidin-2-yl)oxyphenyl] 2-methylpropane-1-sulfonate] | 90 | 
6 | 20 |  | O=S(=O)(CCC(F)(F)F)Oc1ccccc1Oc1ncc(Cl)cn1 [Example I-8] | 90 | Post-emergence efficacy against LOLRI in % [6]: 80%
7 | 10 | 20 | O=S(=O)(CCl)Oc1ccccc1Oc1ncc(Cl)cn1 [Example I-9] |  | Post-emergence efficacy against ORYSA in % ([1]; application rate 320 g/ha): 10%; Post-emergence efficacy against ZEAMX in % ([2]; application rate 320 g/ha): 20%; Pre-emergence efficacy against ORYSA in % ([4]; application rate 80 g/ha): 0%
8 |  |  | O=S(=O)(CCCC(F)(F)F)Oc1ccccc1Oc1ncc(Cl)cn1 [Example I-10] | 90 | Post-emergence efficacy against LOLRI in % [6]: 90%
9 |  |  | O=S(=O)(CCCCl)Oc1c(F)cccc1Oc1ncc(Cl)cn1 [Example I-14] | 80 | 
10 | 0 |  | O=S(=O)(CCCCCl)Oc1ccccc1Oc1ncc(Cl)cn1 [Example I-15] |  | Post-emergence efficacy against ORYSA in % ([1]; application rate 320 g/ha): 20%
11 | 0 | 20 | O=S(=O)(CC1CC1)Oc1ccccc1Oc1ncc(Cl)cn1 [Example I-23] | 90 | 
12 | 0 | 20 | CCCCCS(=O)(=O)Oc1ccccc1Oc1ncc(Cl)cn1 [Example I-24] |  | Pre-emergence efficacy against BRSNW in % ([9]; application rate 80 g/ha): 0%; Pre-emergence efficacy against BRSNW in % ([9]; application rate 320 g/ha): 0%; Post-emergence efficacy against ORYSA in % ([1]; application rate 320 g/ha): 0%; Pre-emergence efficacy against ORYSA in % ([4]; application rate 80 g/ha): 0%; Pre-emergence efficacy against ORYSA in % ([4]; application rate 320 g/ha): 20%
13 | 0 |  | CC(C)CCS(=O)(=O)Oc1ccccc1Oc1ncc(Cl)cn1 [Example I-25] |  | Pre-emergence efficacy against GLXMA in % ([7]; application rate 80 g/ha): 0%; Pre-emergence efficacy against ORYSA in % ([4]; application rate 80 g/ha): 0%
14 |  | 20 | O=S(=O)(CCC(F)(F)F)Oc1c(Cl)cccc1Oc1ncc(Br)cn1 [Example I-32] |  | Pre-emergence efficacy against GLXMA in % ([7]; application rate 80 g/ha): 0%; Pre-emergence efficacy against GLXMA in % ([7]; application rate 320 g/ha): 0%
15 |  |  | O=S(=O)(CCCC(F)(F)F)Oc1c(Cl)cccc1Oc1ncc(Br)cn1 [Example I-34] |  | Pre-emergence efficacy against GLXMA in % ([7]; application rate 80 g/ha): 0%
16 |  | 0 | C=CCS(=O)(=O)Oc1ccccc1Oc1ncc(Cl)cn1 [Example I-36] |  | Pre-emergence efficacy against GLXMA in % ([7]; application rate 80 g/ha): 0%; Post-emergence efficacy against ZEAMX in % ([2]; application rate 320 g/ha): 0%

Row | Structure (SMILES) | Post-emergence efficacy against ORYSA in % ([1]; application rate 80 g/ha) [%] | Post-emergence efficacy against ZEAMX in % ([2]; application rate 80 g/ha) [%] | Pre-emergence efficacy against AVEFA [3] [%] | further results
17 | O=S(=O)(CCCCl)Oc1cccc(F)c1Oc1ncc(Cl)cn1 [Example I-13] | 10 | 20 |  | Pre-emergence efficacy against GLXMA in % ([7]; application rate 80 g/ha): 10%; Pre-emergence efficacy against GLXMA in % ([7]; application rate 320 g/ha): 20%; Post-emergence efficacy against GLXMA in % [8]: 10%; Post-emergence efficacy against ZEAMX in % ([2]; application rate 320 g/ha): 20%; Pre-emergence efficacy against ORYSA in % ([4]; application rate 80 g/ha): 10%
